From patent US20260337211A1, “IP5 SUBSTITUTED COMPOUNDS” (SANIFIT THERAPEUTICS, S.A., priority 2022, published 2026) come the findings set out here.

Structures can show the parent of a compound that is named as a salt. A value given as a limit tells only on which side of the number the result lay.

The test is described as follows: In vitro inhibition of calcium phosphate crystallization in human plasma (spectrophotometric, 550 nm). The test is classed as biochemical. The settings on record: 0-100 μM compound, 1.5 mM phosphate and 12.5 mM calcium, pH 7.4, 30 min at rt, slope between 6 and 24 min, read-out: Relative Potency (EC50). The method, then: The in vitro efficacy of the IP5 substituted compounds (e.g., Compounds 1 to 32) of the invention on the inhibition of calcium phosphate crystallization in human plasma samples was evaluated according to a spectrophotometric assay previously described in the art (Ferrer M, et al., Sci Rep 2017; 7:6858, doi:10.1038/s41598-017-07203-x).
A 96-well plate was employed. Plasma was spiked (1 volume of the IP5 substituted compounds of the invention per 19 volumes of plasma) with increasing concentrations of the derivatives in the range of 0-100 μM. Plasma was then centrifuged at 10,000 g at rt and subsequently mixed with a mixture of 5 mM hydrogen phosphate and 41.67 mM calcium to attain final concentrations of 1.5 mM phosphate and 12.5 mM calcium, respectively. All reagent solutions were filtered, and pH adjusted to 7.4.
Crystallization of calcium phosphate was monitored spectrophotometrically for 30 min at rt by measuring the increments in absorbance at 550 nm using the Biotek Powerwave XS Microplate spectrophotometer (BioTek Instruments, Inc., Winooski, VT, US). The plate was incubated at rt in an orbital shaker and absorbance measured every 3 min.
Plasma crystallization was assessed based on slope measurement in the linear range between 6 and 24 min from plots of increase in absorbance versus logarithm of time. The efficacy of different myo-inositol phosphates derivatives in preventing in vitro formation of calcium phosphate crystals was assessed in human plasma samples using the slopes obtained between 6- and 24-min. Inhibition of crystallization was measured by comparing the slopes of the control sample (blank plasma) with those of samples containing the inhibitor as shown below: […]

For orientation: EC50 means the concentration giving half of the maximal effect. “5-O-Propyl-myo-inositol-1,2,3,4,6-pentakis(phosphate) decasodium salt [Compound 29]”: the EC50 fell in the range of 5 to 10 µM. To “rac-1-O-(5-(4-(Methoxymethyl)-1H-1,2,3-triazol-1-yl)pentyl)-myo-inositol-2,3,4,5,6-pentakis(phosphate) decasodium salt [Compound 52]” belongs 5 to 10 µM. As for “rac-1-O-(9-Methoxynonyl)-myo-inositol-2,3,4,5,6-pentakis(phosphate) decasodium salt [Compound 47]”, the EC50 was at most 5 µM. Next, “rac-4-O-(5-Methoxypentyl)-myo-inositol-1,2,3,5,6-pentakis(phosphate) decasodium salt [Compound 3]”: at most 5 µM. Next, `O=P(O)(O)OC1C(OCCC2CC2)C(OP(=O)(O)O)C(OP(=O)(O)O)C(OP(=O)(O)O)C1OP(=O)(O)O` (racemic) [Compound 17, rac-4-O-(2-Cyclopropylethyl)-myo-inositol-1,2,3,5,6-pentakis(phosphate) decasodium salt]: 5 to 10 µM; “rac-1-O-(2-Cyclopropylethyl)-myo-inositol-2,3,4,5,6-pentakis(phosphate) decasodium salt [Compound 48]”: at most 5 µM. Next, `CC(C)CCCOC1C(OP(=O)(O)O)C(OP(=O)(O)O)C(OP(=O)(O)O)C(OP(=O)(O)O)C1OP(=O)(O)O` (racemic) [Compound 12, rac-4-O-(4-Methylpentyl)-myo-inositol-1,2,3,5,6-pentakis(phosphate) decasodium salt]: 5 to 10 µM.

Consider “rac-4-O-Pentyl-myo-inositol-1,2,3,5,6-pentakis(phosphate) decasodium salt [Compound 1]”, for which the EC50 is at most 5 µM.

With “rac-1-O-Propyl-myo-inositol-2,3,4,5,6-pentakis(phosphate) decasodium salt [Compound 32]”, the EC50 is at most 5 µM. Next, “2-O-Pentyl-myo-inositol-1,3,4,5,6-pentakis(phosphate) decasodium salt [Compound 6]”: at most 5 µM; “rac-1-O-((1-(2-(Metoxycarbonyl)ethyl)-1H-1,2,3-triazol-4-yl)methyl)-myo-inositol-2,3,4,5,6-pentakis(phosphate) undecasodium salt [Compound 53]”: 5 to 10 µM; `COCc1cn(CCCCCOC2C(OP(=O)(O)O)C(OP(=O)(O)O)C(OP(=O)(O)O)C(OP(=O)(O)O)C2OP(=O)(O)O)nn1` (stereo not shown) [Compound 46, 5-O-(5-(4-(Methoxymethyl)-1H-1,2,3-triazol-1-yl)pentyl)-myo-inositol-1,2,3,4,6-pentakis(phosphate) decasodium salt]: above 10 µM. Turning to `O=C(O)CCc1cn(CCCOC2C(OP(=O)(O)O)C(OP(=O)(O)O)C(OP(=O)(O)O)C(OP(=O)(O)O)C2OP(=O)(O)O)nn1` (racemic) [Compound 25, rac-4-O-(3-(4-(2-carboxyethyl)-1H-1,2,3-triazol-1-yl)propyl)-myo-inositol-1,2,3,5,6-pentakis(phosphate) undecasodium salt], the EC50 was above 10 µM. Next, `O=P(O)(O)OC1C(OCCCc2cccc(C(F)(F)F)c2)C(OP(=O)(O)O)C(OP(=O)(O)O)C(OP(=O)(O)O)C1OP(=O)(O)O` (racemic) [Compound 15, rac-4-O-(3-(3-(Trifluoromethyl)phenyl)propyl)-myo-inositol-1,2,3,5,6-pentakis(phosphate) decasodium salt]: 5 to 10 µM; “5-O-(9-Methoxypentyl)-myo-inositol-1,2,3,4,6-pentakis(phosphate) decasodium salt [Compound 44]”: 5 to 10 µM. To “2-O-(5-Methoxypentyl)-myo-inositol-1,3,4,5,6-pentakis(phosphate) decasodium salt [Compound 7]” belongs 5 to 10 µM.
